Assay [1] deals with T1, PfUSP14 (PFE1355c, ubiquitin carboxyl-terminal hydrolase, putative) (Plasmodium falciparum, UniProt Q8I3J3).
T1 construct: gene PF3D7_0527200; recombinant hexahistidyl-tagged PfUSP14
T1 sequence (Q8I3J3 1-605): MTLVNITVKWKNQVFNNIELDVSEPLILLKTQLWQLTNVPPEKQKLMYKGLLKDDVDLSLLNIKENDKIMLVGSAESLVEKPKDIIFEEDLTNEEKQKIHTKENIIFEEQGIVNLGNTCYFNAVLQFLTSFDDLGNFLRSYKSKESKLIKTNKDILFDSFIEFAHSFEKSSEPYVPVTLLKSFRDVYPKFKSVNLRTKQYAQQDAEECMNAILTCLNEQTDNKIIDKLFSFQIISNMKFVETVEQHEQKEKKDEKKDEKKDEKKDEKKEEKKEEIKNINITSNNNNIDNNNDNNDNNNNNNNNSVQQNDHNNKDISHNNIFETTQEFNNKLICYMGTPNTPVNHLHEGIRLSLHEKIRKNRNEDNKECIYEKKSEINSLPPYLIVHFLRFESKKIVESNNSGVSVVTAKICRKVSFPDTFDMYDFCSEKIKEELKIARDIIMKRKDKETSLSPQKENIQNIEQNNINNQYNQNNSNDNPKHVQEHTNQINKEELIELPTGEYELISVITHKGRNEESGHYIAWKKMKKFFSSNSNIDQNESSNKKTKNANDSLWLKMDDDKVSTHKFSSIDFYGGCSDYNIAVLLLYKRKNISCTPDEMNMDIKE
The assay is described as follows: concentration-dependent inhibition of recombinant PfUSP14 deubiquitinase activity. The assay is classed as biochemical.

Assay [2] addresses T2, P. falciparum 26S proteasome, β5 subunit (chymotrypsin-like activity) (Plasmodium falciparum, UniProt Q8IJT1).
T2 construct: gene PF3D7_1011400; with other 20S and 19S proteasome subunits
T2 sequence (Q8IJT1 61-271): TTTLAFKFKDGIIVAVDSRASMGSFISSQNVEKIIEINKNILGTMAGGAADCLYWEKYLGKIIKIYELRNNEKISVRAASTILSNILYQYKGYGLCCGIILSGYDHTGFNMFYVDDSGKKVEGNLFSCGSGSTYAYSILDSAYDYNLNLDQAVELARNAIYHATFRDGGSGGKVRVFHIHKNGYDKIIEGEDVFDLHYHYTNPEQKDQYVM
T2 sequence (A0A5K1K7U1 39-240 partner): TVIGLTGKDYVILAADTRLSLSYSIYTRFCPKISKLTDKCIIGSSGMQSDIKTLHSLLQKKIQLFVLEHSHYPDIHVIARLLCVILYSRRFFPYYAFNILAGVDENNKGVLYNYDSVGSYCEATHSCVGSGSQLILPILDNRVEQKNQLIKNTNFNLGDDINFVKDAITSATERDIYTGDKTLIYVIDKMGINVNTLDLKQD
It counts as biochemical.

For `C=CC(=O)N1C/C(=C\c2ccc([N+](=O)[O-])cc2)C(=O)/C(=C/c2ccc([N+](=O)[O-])cc2)C1` [b-AP15], in assay [1], the IC50 came out at 11.3 ± 4.7 µM.
For `CC(=O)N[C@@H](CSC(=O)[C@]1([C@@H](O)C(C)C)NC(=O)[C@H](C)[C@@H]1O)C(=O)O` [lactacystin], the “fluorogenic peptide (Suc-LLVY-AMC) cleavage by purified proteasome, inhibitor at” value in assay [2] was “the respective proteolytic activities were shown to be inhibited by the proteasome inhibitors MG132 and lactacystin”.

Usually IC50 stands for the concentration at which inhibition is half-maximal.

Source of the values: article PMC4671066, “Characterization of the 26S proteasome network in Plasmodium falciparum” (Scientific Reports, 2015).
